Results from patent US8952024B2, “Herbicidal pyrimidone derivatives” (E I du Pont de Nemours and Company, priority 2009, dated 2015).

Assays:
Type in all cases: in vivo
[1] = test system: barnyardgrass (Echinochloa crus-galli); test: Test A pre-/postemergence plant response
Outline: (§1)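 Greenhouse pots of loam/sand received directed preemergence soil sprays or postemergence sprays (plants 2–10 cm, 1–2 leaf stage), compounds formulated in non-phytotoxic solvent with surfactant. Injury was rated visually versus untreated controls after about ten days on a 0 (no effect) to 100 (complete control) scale.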

corn (Zea mays) = test: Test A pre-/postemergence plant response
Outline: as §1

[2] = test system: giant foxtail (Setaria faberii); test: Test A pre-/postemergence plant response
Outline: as §1

[3] = test system: large crabgrass (Digitaria sanguinalis); test: Test A pre-/postemergence plant response
Outline: as §1

[4] = test system: velvetleaf (Abutilon theophrasti); test: Test A pre-/postemergence plant response
Outline: as §1

[5] = test system: wheat (Triticum aestivum); test: Test A pre-/postemergence plant response
Outline: as §1

[6] = test system: canarygrass (Phalaris minor); test: Test B postemergence plant response; conditions: for Canarygrass plant response rating (0 to 100 scale): 62 g ai/ha, 0 is no effect, 13 to 15 days
Source text: (§2) At the same time, plants selected from these crop and weed species and also winter barley (Hordeum vulgare), canarygrass (Phalaris minor), chickweed (Stellaria media) and windgrass (Apera spica-venti) were planted in pots containing Redi-Earth® planting medium (Scotts Company, 14111 Scottslawn Road, Marysville, Ohio 43041) comprising spaghnum peat moss, vermiculite, wetting agent and starter nutrients and treated with postemergence applications of some of the test chemicals formulated in the same manner. Plants ranged in height from 2 to 18 cm (1- to 4-leaf stage) for postemergence treatments.
(§3) Treated plants and controls were maintained in a greenhouse for 13 to 15 days, after which time all treated plants were visually evaluated and compared to controls. Plant response ratings, summarized in Table B, are based on a scale of 0 to 100 where 0 is no effect and 100 is complete control. A dash (-) response means no test result.

[7] = test system: chickweed (Stellaria media); test: Test B postemergence plant response; conditions: for Chickweed plant response rating (0 to 100 scale): 62 g ai/ha, 0 is no effect, 13 to 15 days
Source text: as §2, §3

[8] = test system: windgrass (Apera spica-venti); test: Test B postemergence plant response; conditions: for Windgrass plant response rating (0 to 100 scale): 62 g ai/ha, 0 is no effect, 13 to 15 days
Source text: as §2, §3

[9] = test system: winter barley (Hordeum vulgare); test: Test B postemergence plant response; conditions: for Barley plant response rating (0 to 100 scale): 62 g ai/ha, 0 is no effect, 13 to 15 days
Source text: as §2, §3

[10] = Postemergence, 125 g ai/ha, 0 to 100 scale where 0 is no effect and 100 is complete control
[11] = Postemergence, 500 g ai/ha, 0 to 100 scale, 0 = no effect, 100 = complete control, approx. ten days
[12] = Preemergence, 125 g ai/ha, 0 to 100 scale, 0 = no effect, 100 = complete control
[13] = Preemergence, 500 g ai/ha, visual injury, 0 to 100 scale (0 no effect, 100 complete control), approx. ten days
[14] = 31 g ai/ha, postemergence, scale 0 to 100, 0 is no effect, 100 is complete control
[15] = postemergence, 100 is complete control
[16] = Postemergence, 125 g ai/ha, visual rating after 13 to 15 days, scale 0 (no effect) to 100 (complete control)
[17] = Postemergence, 250 g ai/ha, scale 0 to 100 (0 no effect, 100 complete control)

| SMILES | Plant response rating, Barnyardgrass [1, 10] | Plant response rating, Barnyardgrass [1, 11] | Plant response rating, Barnyardgrass [1, 12] | Plant response rating, Barnyardgrass [1, 13] | Plant response rating, Corn (corn (Zea mays); [10]) | Plant response rating, Corn (corn (Zea mays); [11]) | Plant response rating, Corn (corn (Zea mays); [12]) | Plant response rating, Corn (corn (Zea mays); [13]) | Plant response rating, Foxtail, Giant [2, 10] | Plant response rating, Foxtail, Giant [2, 11] | Plant response rating, Foxtail, Giant [2, 13] | Plant response rating, Crabgrass, Large [3, 10] | Plant response rating, Crabgrass, Large [3, 11] | Plant response rating, Crabgrass, Large [3, 13] | Plant response rating, Velvetleaf [4, 10] | Plant response rating, Velvetleaf [4, 11] | Plant response rating, Velvetleaf [4, 12] | Plant response rating, Velvetleaf [4, 13] | Plant response rating, Wheat [5, 10] | Plant response rating, Wheat [5, 11] | also measured |
| --- | --- | --- | --- | --- | --- | --- | --- | --- | --- | --- | --- | --- | --- | --- | --- | --- | --- | --- | --- | --- | --- |
| CCCc1ncc(C(=O)C2=C(O)CCCC2=O)c(=O)n1-c1cccc(C)c1 [Compound 79] | 80 | 90 | 0 | 70 | 10 | 60 | 0 | 0 | 50 | 80 | 50 | 80 | 90 | 100 | 100 | 100 | 70 | 100 | 0 | 50 | Plant response rating, Foxtail, Giant [2, 12]: 0; Plant response rating, Crabgrass, Large [3, 12]: 50; Plant response rating, Wheat [5, 12]: 0; Plant response rating, Wheat [5, 13]: 30; Plant response rating, Canarygrass [6, 14]: 15; Canarygrass plant response rating (0 to 100 scale) [6, 15]: 30; Plant response rating, Canarygrass [6, 16]: 35; Plant response rating, Canarygrass [6, 17]: 50; Plant response rating, Chickweed [7, 14]: 80; Chickweed plant response rating (0 to 100 scale) [7, 15]: 95; Plant response rating, Chickweed [7, 16]: 95; Plant response rating, Chickweed [7, 17]: 98; Plant response rating, Windgrass [8, 14]: 50; Windgrass plant response rating (0 to 100 scale) [8, 15]: 65; Plant response rating, Windgrass [8, 16]: 65; Plant response rating, Windgrass [8, 17]: 90; Plant response rating, Barley [9, 14]: 5; Barley plant response rating (0 to 100 scale) [9, 15]: 30; Plant response rating, Barley [9, 16]: 35; Plant response rating, Barley [9, 17]: 55 |
| O=C1CCCC(O)=C1C(=O)c1cnc(C2CC2)n(-c2ccccc2)c1=O [Compound 87] | 80 | 90 | 20 | 90 | 10 | 50 | 0 | 0 | 70 | 90 | 80 | 90 | 90 | 100 | 100 | 100 | 100 | 100 | 30 | 60 | Plant response rating, Wheat [5, 12]: 10; Plant response rating, Wheat [5, 13]: 40; Plant response rating, Canarygrass [6, 14]: 0; Canarygrass plant response rating (0 to 100 scale) [6, 15]: 30; Plant response rating, Canarygrass [6, 16]: 35; Plant response rating, Canarygrass [6, 17]: 35; Plant response rating, Chickweed [7, 14]: 100; Chickweed plant response rating (0 to 100 scale) [7, 15]: 100; Plant response rating, Chickweed [7, 16]: 100; Plant response rating, Chickweed [7, 17]: 100; Plant response rating, Windgrass [8, 14]: 55; Windgrass plant response rating (0 to 100 scale) [8, 15]: 60; Plant response rating, Windgrass [8, 17]: 95; Plant response rating, Barley [9, 14]: 0; Barley plant response rating (0 to 100 scale) [9, 15]: 0; Plant response rating, Barley [9, 16]: 0; Plant response rating, Barley [9, 17]: 5 |
| O=C1CCCC(O)=C1C(=O)c1cnc(-c2ccccc2)n(C2CC2)c1=O [Compound 90] | 80 | 90 | 40 | 70 | 0 | 20 | 0 | 0 | 70 | 80 | 60 | 80 | 90 | 100 | 100 | 100 | 70 | 100 | 0 | 40 | Plant response rating, Foxtail, Giant [2, 12]: 30; Plant response rating, Crabgrass, Large [3, 12]: 60; Plant response rating, Wheat [5, 12]: 0; Plant response rating, Wheat [5, 13]: 0; Plant response rating, Canarygrass [6, 14]: 5; Canarygrass plant response rating (0 to 100 scale) [6, 15]: 10; Plant response rating, Canarygrass [6, 16]: 30; Plant response rating, Canarygrass [6, 17]: 30; Plant response rating, Chickweed [7, 14]: 70; Chickweed plant response rating (0 to 100 scale) [7, 15]: 80; Plant response rating, Chickweed [7, 16]: 85; Plant response rating, Chickweed [7, 17]: 90; Plant response rating, Windgrass [8, 14]: 0; Windgrass plant response rating (0 to 100 scale) [8, 15]: 5; Plant response rating, Windgrass [8, 17]: 50; Plant response rating, Barley [9, 14]: 0; Barley plant response rating (0 to 100 scale) [9, 15]: 5; Plant response rating, Barley [9, 16]: 10; Plant response rating, Barley [9, 17]: 20 |
| COCCOCCn1c(-c2ccccc2)ncc(C(=O)C2=C(O)CCCC2=O)c1=O [Compound 91] | 90 | 100 | 60 | 100 | 0 | 10 | 0 | 0 | 80 | 80 | 70 | 90 | 100 | 100 | 100 | 100 | 100 | 100 | 0 | 50 | Plant response rating, Foxtail, Giant [2, 12]: 40; Plant response rating, Crabgrass, Large [3, 12]: 90; Plant response rating, Wheat [5, 12]: 0; Plant response rating, Wheat [5, 13]: 20; Plant response rating, Canarygrass [6, 14]: 25; Canarygrass plant response rating (0 to 100 scale) [6, 15]: 55; Plant response rating, Canarygrass [6, 16]: 65; Plant response rating, Canarygrass [6, 17]: 75; Plant response rating, Chickweed [7, 14]: 85; Chickweed plant response rating (0 to 100 scale) [7, 15]: 95; Plant response rating, Chickweed [7, 16]: 98; Plant response rating, Chickweed [7, 17]: 100; Plant response rating, Windgrass [8, 14]: 10; Windgrass plant response rating (0 to 100 scale) [8, 15]: 40; Plant response rating, Windgrass [8, 17]: 65; Plant response rating, Barley [9, 14]: 0; Barley plant response rating (0 to 100 scale) [9, 15]: 30; Plant response rating, Barley [9, 16]: 30; Plant response rating, Barley [9, 17]: 40 |
| O=C1CCCC(O)=C1C(=O)c1cnc(C2CCCC2)n(-c2ccccc2)c1=O [Compound 92] | 80 | 90 | 60 | 100 | 0 | 20 | 0 | 0 | 80 | 90 | 80 | 90 | 90 | 100 | 100 | 100 | 90 | 100 | 0 | 0 | Plant response rating, Foxtail, Giant [2, 12]: 70; Plant response rating, Crabgrass, Large [3, 12]: 90; Plant response rating, Wheat [5, 12]: 0; Plant response rating, Wheat [5, 13]: 0; Plant response rating, Canarygrass [6, 14]: 0; Canarygrass plant response rating (0 to 100 scale) [6, 15]: 0; Plant response rating, Canarygrass [6, 16]: 0; Plant response rating, Canarygrass [6, 17]: 0; Plant response rating, Chickweed [7, 14]: 90; Chickweed plant response rating (0 to 100 scale) [7, 15]: 95; Plant response rating, Chickweed [7, 16]: 98; Plant response rating, Chickweed [7, 17]: 100; Plant response rating, Windgrass [8, 14]: 0; Windgrass plant response rating (0 to 100 scale) [8, 15]: 50; Plant response rating, Windgrass [8, 17]: 90; Plant response rating, Barley [9, 14]: 0; Barley plant response rating (0 to 100 scale) [9, 15]: 0; Plant response rating, Barley [9, 16]: 0; Plant response rating, Barley [9, 17]: 0 |
